Laboratory results published in US20060045953A1 (priority 2004, published 2006).
Where two headings read alike, the source gives them in different places.

Target: T1, hT1R1/hT1R3 umami receptor (Homo sapiens, UniProt Q7RTX0+Q7RTX1)
T1 construct: expressed in transfected cells; host or cells: HEK293 derivative stably expressing Gα15, clone I-17, expression induced with mifepristone
T1 sequence (Q7RTX1 21-841): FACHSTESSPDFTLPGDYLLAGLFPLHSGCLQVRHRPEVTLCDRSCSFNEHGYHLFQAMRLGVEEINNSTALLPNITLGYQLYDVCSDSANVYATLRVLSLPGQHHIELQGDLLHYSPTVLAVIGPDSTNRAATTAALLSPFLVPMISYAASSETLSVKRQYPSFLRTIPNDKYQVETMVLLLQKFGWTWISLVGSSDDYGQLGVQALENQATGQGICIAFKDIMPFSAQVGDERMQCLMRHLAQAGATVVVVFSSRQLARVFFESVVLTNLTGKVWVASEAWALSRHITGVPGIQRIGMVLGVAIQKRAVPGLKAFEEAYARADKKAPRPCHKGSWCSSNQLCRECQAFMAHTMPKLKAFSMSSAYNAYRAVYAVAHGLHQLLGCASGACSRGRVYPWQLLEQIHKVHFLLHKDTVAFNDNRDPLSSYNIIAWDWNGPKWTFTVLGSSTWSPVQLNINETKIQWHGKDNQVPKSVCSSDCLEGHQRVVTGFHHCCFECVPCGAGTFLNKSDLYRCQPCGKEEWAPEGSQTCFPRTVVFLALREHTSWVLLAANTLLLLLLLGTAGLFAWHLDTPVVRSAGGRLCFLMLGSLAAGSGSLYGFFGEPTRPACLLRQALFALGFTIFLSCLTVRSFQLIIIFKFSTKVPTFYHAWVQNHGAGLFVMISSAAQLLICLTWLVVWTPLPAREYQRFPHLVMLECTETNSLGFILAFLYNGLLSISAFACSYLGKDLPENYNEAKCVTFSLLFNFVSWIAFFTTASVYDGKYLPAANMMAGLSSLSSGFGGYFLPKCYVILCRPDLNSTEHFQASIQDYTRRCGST
T1 sequence (Q7RTX0 21-852): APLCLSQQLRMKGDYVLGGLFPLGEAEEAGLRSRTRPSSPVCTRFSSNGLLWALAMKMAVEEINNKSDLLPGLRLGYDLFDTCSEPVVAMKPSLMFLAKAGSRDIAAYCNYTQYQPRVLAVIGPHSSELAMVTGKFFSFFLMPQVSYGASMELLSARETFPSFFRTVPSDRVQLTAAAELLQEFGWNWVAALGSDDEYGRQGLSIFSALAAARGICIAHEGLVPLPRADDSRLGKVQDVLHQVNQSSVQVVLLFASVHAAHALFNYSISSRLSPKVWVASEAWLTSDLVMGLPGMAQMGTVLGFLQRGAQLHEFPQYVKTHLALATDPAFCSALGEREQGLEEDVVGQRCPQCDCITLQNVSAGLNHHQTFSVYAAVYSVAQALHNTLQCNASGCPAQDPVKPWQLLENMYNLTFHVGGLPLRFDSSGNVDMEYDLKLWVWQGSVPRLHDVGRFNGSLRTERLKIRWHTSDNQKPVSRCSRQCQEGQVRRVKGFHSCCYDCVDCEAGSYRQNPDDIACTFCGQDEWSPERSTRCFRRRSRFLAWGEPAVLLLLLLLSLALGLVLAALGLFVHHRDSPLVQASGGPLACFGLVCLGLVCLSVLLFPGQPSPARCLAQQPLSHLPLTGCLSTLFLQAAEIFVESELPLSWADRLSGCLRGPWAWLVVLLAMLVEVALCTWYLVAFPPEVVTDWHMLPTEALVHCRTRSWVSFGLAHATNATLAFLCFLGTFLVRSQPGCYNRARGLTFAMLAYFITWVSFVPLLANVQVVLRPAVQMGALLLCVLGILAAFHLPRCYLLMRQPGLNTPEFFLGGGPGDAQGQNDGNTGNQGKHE
Test: In vitro hT1R1/hT1R3 umami taste receptor activation assay (FLIPR, dose response)
Format: cell-based
Text: In order to identify new savory flavoring agents and enhancers, including compounds with savory agonist and enhancer activities (dual activity), the compounds of Formula (I) were screened in primary assays and secondary assays including compound dose response and enhancement assay. In a primary assay for potential ability to modulate umami taste, amide compounds of Formula (I) that can be either savory flavoring agents in their own right or flavor enhancers of MSG are identified and scores of their activities are given as percentage of the maximum MSG intensity (%). In compound dose response, an EC50 is calculated to reflect the potency of the compound as a savory agonist or enhancer.
An HEK293 cell line derivative (See e.g., Chandrashekar, et al., Cell (2000) 100: 703-711) which stably expresses Gα15 and hT1R1/hT1R3 under an inducible promoter (see WO 03/001876 A2) was used to identify compounds with savory tasting properties.
For dose-responses analysis, stimuli were presented in duplicates at 10 different concentrations ranging from 1.5 nM to 30 μM. Activities were normalized to the response obtained with 60 mM monosodium glutamate, a concentration that elicits maximum receptor response. […] Identical results were obtained when analyzing the dose-response data using commercially available software for non-linear regression analysis such as GraphPad PRISM (San Diego, Calif.).

[1] = opposite enantiomers compared, read-out: AFFINITY FOR T1R1/T1R3 SAVORY RECEPTOR EC50 UM
[2] = read-out: EC50 for activation of a hT1R1/hT1R3 umami receptor expressed in an HEK293 cell line
[3] = Table A, Umami Amides, read-out: Umami EC50

Structure (SMILES) | EC50 [2] [nM] | also measured
COc1cccc(C(=O)N[C@H]2CCCc3ccccc32)c1N |  | EC50 [1]: 10 nM
COC(=O)C(CC(C)C)NC(=O)c1cc2ccccc2s1 (stereo in doubt) [Example A4, 2-[(Benzo[b]thiophene-2-carbonyl)-amino]-4-methyl-pentanoic acid methyl ester] |  | EC50 [3]: 400 nM
COC(=O)C(CC(C)C)NC(=O)c1cc2ccccc2o1 (stereo in doubt) [Example A5, 2-[(Benzofuran-2-carbonyl)-amino]-4-methyl-pentanoic acid methyl ester] |  | EC50 [3]: 310 nM
COC(=O)C(CC(C)C)NC(=O)c1cc2cc(OC)ccc2o1 (stereo in doubt) [Example A6, 2-[(5-Methoxy-benzofuran-2-carbonyl)-amino]-4-methyl-pentanoic acid methyl ester] |  | EC50 [3]: 320 nM
CCOc1ccc(C(=O)N[C@@H]2CCc3ccccc32)cc1C [(R)-N-(2,3-dihydro-1H-inden-1-yl)-4-ethoxy-3-methylbenzamide] |  | EC50 [1]: 4530 nM
COc1ccc(C(=O)N[C@@H]2CCc3ccccc32)cc1C [(R)-N-(2,3-dihydro-1H-inden-1-yl)-4-methoxy-3-methylbeuzamide] |  | EC50 [1]: 2130 nM
CCCC(CC(C)C)NC(=O)c1ccc2c(c1)OCO2 (stereo not drawn) [Example 2, N-(2-methylheptan-4-yl)benzo[d][1,3]dioxole-5-carboxamide] | 220 | 
CCCC(NC(=O)c1ccc2c(c1)OCO2)C(C)C (stereo not drawn) [Example 3, N-(2-methylhexan-3-yl)benzo[d][1,3]dioxole-5-carboxamide] | 610 | 
CC1CCCC(NC(=O)c2ccc3c(c2)OCO3)C1C (stereo not drawn) [Example 4, N-(2,3-dimethylcyclohexyl)benzo[d][1,3]dioxole-5-carboxamide] | 450 | 
CCC(CC(C)C)NC(=O)c1ccc2c(c1)OCO2 (stereo not drawn) [Example 5, N-(5-methylhexan-3-yl)benzo[d][1,3]dioxole-5-carboxamide] | 570 | 
O=C(NC1CCCc2ccccc21)c1ccc2c(c1)OCO2 (stereo not drawn) [Example 7, N-(1,2,3,4-tetrahydronaphthalen-1-yl)benzo[d][1,3]dioxole-5-carboxamide] | 710 | 
CC(C)C[C@H](CO)NC(=O)c1ccc2c(c1)OCO2 [Example 8, (R)-N-(1-hydroxy-4-methylpentan-2-yl)benzo [d][1,3]dioxole-5-carboxamide] | 9000 | 
COC[C@@H](CC(C)C)NC(=O)c1ccc2c(c1)OCO2 [Example 9, (R)-N-(1-methoxy-4-methylpentan-2-yl)benzo[d][1,3]dioxole-5-benzo[d][1,3]dioxole-5-carboxylic acid] | 3500 | 
COC(=O)[C@H](NC(=O)c1ccc2c(c1)OCO2)C(C)C [Example 10, (R)-methyl 2-(benzo[d][1,3]dioxole-6-carboxamido)-3-methylbutanoate] | 1160 | 
CC(C)CC(COP(=O)(O)O)NC(=O)c1ccc2c(c1)OCO2 (stereo not drawn) [Example 11, 2-(benzo[d][1,3]dioxole-6-carboxamido)-4-methylpentyl dihydrogen phosphate] | 10900 | 
CCCC(CC)NC(=O)c1ccc(OC)c(C)c1 (stereo not drawn) [Example 12, N-(hexan-3-yl)-4-methoxy-3-methylbenzamide] | 120 | 
CC(C)C[C@@H](NC(=O)c1ccc2c(c1)OCO2)C(=O)N(C)C [Example 13, (R)-N-(1-(dimethylamino)-4-methyl-1-oxopentan-2-yl) benzo[d][1,3]dioxole-5-carboxamide] | 1060 | 
CCCC(COC(C)=O)NC(=O)c1ccc2c(c1)OCO2 (stereo not drawn) [Example 14, 2-(benzo[d][1,3]dioxole-6-carboxamido)pentyl acetate] | 11900 | 

Further lines, with some results ahead:

EC50 [2] [nM] | Structure (SMILES) | also measured
80 | COc1ccc2c(c1)CCC2NC(=O)c1ccc(OC)c(C)c1 (racemic) [Example 121-2, (R/S)-4-Methoxy-N-(5-methoxy-2,3-dihydro-1H-inden-1-yl)-3-methylbenzamide] | 
1700 | CC(C)C[C@@H](NC(=O)c1ccc2c(c1)OCO2)C(=O)NCCc1cccnc1 [Example 15, (R)-N-(4-methyl-1-oxo-1-(2-(pyridin-3-yl)ethylamino)pentan-2-yl)benzo[d][1,3]dioxole-5-carboxamide] | 
3000 | CC(C)C[C@@H](NC(=O)c1ccc2c(c1)OCO2)C(=O)N1CCCC1CO (stereo partly drawn) [Example 16, N-((R)-1-(2-(hydroxymethyl)pyrrolidin-1-yl)-4-methyl-1-oxopentan-2-yl)benzo[d][1,3]dioxole-5-carboxamide] | 
110 | CCCC(CCC)NC(=O)c1cc2c(cc1C)OCO2 [Example 17, N-(heptan-4-yl)-6-methylbenzo[d][1,3]dioxole-5-carboxamide] | 
100 | CCCC(CCC)NC(=O)c1ccc2c(c1)OC(C)O2 (stereo not drawn) [Example 18, N-(heptan-4-yl)-2-methylbenzo[d][1,3]dioxole-5-carboxamide] | 
14000 | CCCC(CCC)NC(=O)c1ccc2c(c1)OC(CC(=O)OCC)O2 (stereo not drawn) [Example 19, Ethyl 2-(5-(heptan-4-ylcarbamoyl)benzo[d][1,3]dioxol-2-yl)acetate] | 
2700 | CCCC(CCC)NC(=O)c1ccc2c(c1)OC(C)(C)O2 [Example 20, N-(heptan-4-yl)-2,2-dimethylbenzo[d][1,3]dioxole-5-carboxamide] | 
11500 | CCCC(CCC)NC(=O)c1ccc2c(c1)OC(C(C)C)O2 (stereo not drawn) [Example 21, N-(heptan-4-yl)-2-isopropylbenzo[d][1,3]dioxole-5-carboxamide] | 
1510 | CCCC(CCC)NC(=O)c1ccc2c(c1)OC(F)(F)O2 [Example 22, 2,2-difluoro-N-(heptan-4-yl)benzo[d][1,3]dioxole-5-carboxamide] | 
490 | CCCC(CCC)NC(=O)c1ccc2c(c1)OCCO2 [Example 23, 2,3-Dihydro-benzo[1,4]dioxine-6-carboxylic acid (1-propyl-butyl)-amide] | 
6400 | CCCC(CCC)NC(=O)c1ccc2c(c1)OCCCO2 [Example 24, N-(heptan-4-yl)-3,4-dihydro-2H-benzo[b][1,4]dioxepine-7-carboxamide] | 
880 | CCCC(CCC)NC(=O)c1cc2ccccc2o1 [Example 25, benzofuran-2-carboxylic(1-propylbutyl)amide] | 
110 | COC(=O)[C@@H](CC(C)C)NC(=O)c1cc2cc(C)ccc2o1 [Example 27, (R)-methyl 4-methyl-2-(5-methylbenzofuran-2-carboxamido)pentanoate] | 
740 | CCCC(CC)NC(=O)c1cc2cc(C)ccc2o1 (stereo not drawn) [Example 28, N-(hexan-3-yl)-5-methylbenzofuran-2-carboxamide] | 
400 | CCCC(CC)NC(=O)c1cc2cc(OC)ccc2o1 (stereo not drawn) [Example 29, N-(hexan-3-yl)-5-methoxybenzofuran-2-carboxamide] | 
